Reference: patent US7569530B1, “Antimicrobial compositions, products and methods employing same” (The Procter & Gamble Company, priority 2003, dated 2009)

How the values were obtained:
COX-1 = COX-1 (Homo sapiens, UniProt P23219); test: In vitro cycloxygenase enzyme inhibition; format: biochemical; details: treatment sample at pH 3.0
Description: (§1) In vitro studies of the present invention and its key components have been conducted to assess the efficacy of the claimed compositions in inhibiting the cycloxygenase (COX) 1 and 2 enzymes. Said enzymes are adapted to convert arachidonic acid in cell membranes to prostaglandin, a messenger agent that conveys a signal to the cells to increase and enhance their inflammatory response. […] The results of this in vitro study have been documented in the below-listed chart.

COX-2 = biological target: T1, COX-2 (Homo sapiens, UniProt P35354); test: In vitro cycloxygenase enzyme inhibition; format: biochemical; details: treatment sample at pH 3.0
T1 sequence (P35354 18-604): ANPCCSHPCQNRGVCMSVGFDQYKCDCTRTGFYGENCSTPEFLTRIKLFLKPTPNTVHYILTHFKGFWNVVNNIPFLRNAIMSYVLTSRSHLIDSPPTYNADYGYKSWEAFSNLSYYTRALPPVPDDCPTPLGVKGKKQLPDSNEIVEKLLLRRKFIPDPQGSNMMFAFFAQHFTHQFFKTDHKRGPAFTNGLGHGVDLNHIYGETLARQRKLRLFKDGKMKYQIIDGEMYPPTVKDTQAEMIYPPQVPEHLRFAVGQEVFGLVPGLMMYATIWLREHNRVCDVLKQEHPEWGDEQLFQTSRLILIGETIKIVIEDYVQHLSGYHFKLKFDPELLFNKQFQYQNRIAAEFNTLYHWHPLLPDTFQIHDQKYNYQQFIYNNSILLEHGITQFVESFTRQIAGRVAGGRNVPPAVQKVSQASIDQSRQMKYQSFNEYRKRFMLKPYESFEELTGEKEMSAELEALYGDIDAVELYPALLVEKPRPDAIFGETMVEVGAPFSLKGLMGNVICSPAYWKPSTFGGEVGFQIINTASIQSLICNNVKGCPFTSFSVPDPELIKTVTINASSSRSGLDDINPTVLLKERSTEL
Description: as §1

COX-1, sequence (P23219 24-599): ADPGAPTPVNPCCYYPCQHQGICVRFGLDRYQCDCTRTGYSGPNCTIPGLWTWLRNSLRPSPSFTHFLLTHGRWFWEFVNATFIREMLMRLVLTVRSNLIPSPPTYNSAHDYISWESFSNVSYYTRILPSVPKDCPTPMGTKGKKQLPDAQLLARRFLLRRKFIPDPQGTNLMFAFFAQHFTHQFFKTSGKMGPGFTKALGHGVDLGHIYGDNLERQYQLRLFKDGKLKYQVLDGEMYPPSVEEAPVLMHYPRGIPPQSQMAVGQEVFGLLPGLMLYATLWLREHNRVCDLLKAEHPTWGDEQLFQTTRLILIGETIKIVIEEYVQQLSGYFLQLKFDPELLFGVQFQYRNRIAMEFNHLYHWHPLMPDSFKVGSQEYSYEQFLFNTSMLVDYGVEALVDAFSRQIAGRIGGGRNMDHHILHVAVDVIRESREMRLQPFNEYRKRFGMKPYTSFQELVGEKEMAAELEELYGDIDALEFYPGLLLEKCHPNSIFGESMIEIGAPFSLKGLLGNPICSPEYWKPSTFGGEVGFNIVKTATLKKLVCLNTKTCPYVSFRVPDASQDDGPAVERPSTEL

Octyl Glyceryl Sulfonate was tested, and the “% of Initial Enzyme Activity COX-1” value (COX-1) was 55% and the “% of Initial Enzyme Activity COX-2” value (COX-2) was 95%.

For O=C(O)CC(O)(CC(=O)O)C(=O)O [C, Citric Acid], the “% of Initial Enzyme Activity COX-1” value (COX-1) was 94% and the “% of Initial Enzyme Activity COX-2” value (COX-2) was 100%.

In the case of O=C1CC[C@@H](C(=O)O)N1 [B, Pyroglutamic Acid], the “% of Initial Enzyme Activity COX-1” value (COX-1) is reported as 100% and the “% of Initial Enzyme Activity COX-2” value (COX-2) is reported as 92%.
